# Source: US10206944B2, “Chondroitin for use in medicine” (ALTERGON S.A., priority 2012, dated 2019)
# “Also recorded” adds a separate entry of the source.
# Experiments:
# [1] = test system: Escherichia coli strain sensitive to the action of mutagenic substances; assay: DNA-repair test; type: cell-based; settings: highest doses, with and without metabolic activation
# Experimental: In vitro test, DNA-repair test—The DNA alteration test was conducted with a strain of Escherichia coli sensitive to the action of mutagenic substances. In the study, mitomycin C was used as positive control and penicillin G as negative control.
# [2] = test system: volunteers suffering from dry eye; assay: Ophthalmic eyedrops in volunteers suffering from dry eye; type: in vivo, human
# Experimental: Two ophthalmic preparations were compared: a conventional one based on hyaluronic acid and one based on chondroitin, both at the concentration of 3% w/v in NaCl saline solution at pH 7.4. The eyedrops were prepared in single-dose packaging sterilised in the autoclave. […] The volunteers, of both sexes, aged between 45 and 60 years, were randomised into two groups of 15, and treated with the two types of eyedrops. Under medical control the inflammatory state of the corneal surface was evaluated at the beginning and end of the treatment, and the evaluations of the treated patients relating to tolerability, duration of the wetting effect, and visual alteration after application, were recorded. A scale of 1 to 5 was used for the clinical evaluations and the patients' evaluations, where 5 represents optimum resolution of the pathological condition and its sequelae. […]
# [3] = test system: mice or Sprague Dawley rats; assay: Acute toxicity study; type: in vivo, mouse and rat
# Experimental: Acute toxicity study—The study was conducted on two animal models, the mouse and rat, to which chondroitin was administered orally (p.o.) or intravenously (i.v.). For each experiment the animals (mice or Sprague Dawley rats) were divided into 5 groups of 20 (10 males and 10 females) which received p.o. or i.v. chondroitin at doses ranging from 250 to 2,000 mg/Kg for oral administration and 20 to 160 mg/Kg for intravenous administration; the volume administered was 10 mL/Kg for p.o. administration and 5 mL/Kg for i.v. administration.
# At the end of the treatment the animals were euthanized and a complete autopsy was performed.
# Sprague Dawley rats = assay: Subacute toxicity study, 30 days; type: in vivo, rat
# Experimental: Subacute toxicity study—The study was performed on the rat by administering chondroitin orally (p.o.) and intramuscularly (i.m.). For each of the two studies the animals (Sprague Dawley rats) were divided into 4 groups formed by 15 males and 15 females; chondroitin at the concentration of 50, 100 and 200 mg/Kg respectively was administered to the first 3 groups, and the carrier alone to the fourth group; the administration volume was 10 mL/Kg for p.o. administration and 5 mL/Kg for i.m. administration. Daily administration continued for 30 days. The doses used represent up to 20 times the human therapeutic dose. The general state of health and behaviour of the treated animals were monitored daily, and weight variations, haematological status and urine were evaluated every 5 days. […] At the end of the study all animals were euthanized and an autopsy and histopathological analysis of the main organs (lungs, heart, liver, ovaries, uterus, testicles, kidneys and pituitary gland) were conducted. None of these evaluations indicated any significant differences between the animals treated with chondroitin and the control animals which received the carrier alone.
substance,measurement,setting,value
chondroitin,interaction with / alteration of DNA (DNA-repair test),[1],does not interact and does not alter the DNA; also recorded: Even at higher doses it does not interact and does not alter
same,Doctor: corneal inflammation,"[2]; 0 days, 3% w/v eyedrops, scale of 1 to 5, 5 optimum",1.1 ± 0.2
same,Patient: absence of visual alteration,"[2]; 10 days, scale of 1 to 5",4.6 ± 0.2
same,Patient: tolerability,"[2]; 10 days, scale of 1 to 5",4.7 ± 0.2
same,Patient: wetting effect,"[2]; 10 days, scale of 1 to 5",4.8 ± 0.3
same,Patient: absence of visual alteration,"[2]; 20 days, scale of 1 to 5",4.7 ± 0.1
same,Patient: tolerability,"[2]; 20 days, scale of 1 to 5",4.5 ± 0.5
same,Patient: wetting effect,"[2]; 20 days, scale of 1 to 5",4.6 ± 0.2
same,Doctor: corneal inflammation,"[2]; 30 days, 3% w/v eyedrops 4 times a day, scale of 1 to 5",4.2 ± 0.3
same,Patient: absence of visual alteration,"[2]; 30 days, scale of 1 to 5",4.8 ± 0.1
same,Patient: tolerability,"[2]; 30 days, scale of 1 to 5",4.8 ± 0.1
same,Patient: wetting effect,"[2]; 30 days, scale of 1 to 5",4.9 ± 0.1
same,LD50,"[3]; acute, single dose i.v., mouse and rat",> 160 mg/kg
same,signs of toxicity or mortality,"[3]; examined every 24 h for 40 days, up to 2,000 mg/Kg p.o., 160 mg/Kg i.v.",no signs of toxicity or mortality were observed
same,"subacute toxicity, conclusion","Sprague Dawley rats; rat, 50, 100 and 200 mg/Kg p.o. and i.m., 30 days",non-toxic at the doses used
same,"No toxicity (dose), subacute 30 days","Sprague Dawley rats; rat, p.o. and i.m., daily for 30 days",No toxicity >200 mg/kg/day p.o. and i.m.
